Read-outs that look alike come from different tables or passages of the source.
Key:
[1] = target: human TYK2 (JH2domain-pseudokinase) (Homo sapiens (Human), UniProt P29597); test: TYK2 JH2 Domain Binding Assay (KINOMEscan)
Method in brief: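 Pseudokinase domain binding was measured by qPCR of tagged, bead-retained kinase after 1 h room-temperature competition, with 0.9% DMSO and compound up to 30,000 nM in 3-fold steps. Hill-equation Kd, duplicate.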

Tyk2 kinase domain (DH1) = Tyk2 kinase domain (DH1) (Homo sapiens (Human), UniProt P29597); test: Tyk2 Radioactive Kinase Assay; format: biochemical; conditions: for inhibition at 10 µM: read-out: Tyk2 JH1% Inhibition @ 10 μM
Chain of Tyk2 kinase domain (DH1) (P29597 897-1176): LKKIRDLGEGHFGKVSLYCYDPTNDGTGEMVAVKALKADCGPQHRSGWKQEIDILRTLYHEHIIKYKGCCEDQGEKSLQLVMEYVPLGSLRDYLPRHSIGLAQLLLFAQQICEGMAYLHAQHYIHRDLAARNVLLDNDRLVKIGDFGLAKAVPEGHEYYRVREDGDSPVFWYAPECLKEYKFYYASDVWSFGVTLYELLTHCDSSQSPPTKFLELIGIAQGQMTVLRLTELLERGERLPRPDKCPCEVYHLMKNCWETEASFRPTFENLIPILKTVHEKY
Method in brief: (§1)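 Each kinase domain is incubated with test compound at 10 μM. Activity is then measured radiometrically and expressed as percent inhibition relative to uninhibited enzyme.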

JAK2 kinase domain (JH1) = JAK2 kinase domain (JH1) (Homo sapiens (Human), UniProt O60674); test: JAK2 Radioactive Kinase Assay; format: biochemical; conditions: for inhibition at 10 µM: read-out: JAK2 JH1% Inhibition @ 10 μM
Chain of JAK2 kinase domain (JH1) (O60674 849-1124): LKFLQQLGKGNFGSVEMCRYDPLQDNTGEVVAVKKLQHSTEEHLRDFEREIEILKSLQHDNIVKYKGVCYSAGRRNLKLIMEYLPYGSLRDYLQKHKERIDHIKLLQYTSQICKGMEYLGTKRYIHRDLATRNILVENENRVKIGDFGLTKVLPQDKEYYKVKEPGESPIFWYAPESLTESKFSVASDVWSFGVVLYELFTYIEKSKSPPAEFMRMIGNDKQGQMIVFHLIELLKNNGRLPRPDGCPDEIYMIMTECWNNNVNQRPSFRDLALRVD
Method in brief: as §1

Chain of human TYK2 (JH2domain-pseudokinase) (P29597 556-888): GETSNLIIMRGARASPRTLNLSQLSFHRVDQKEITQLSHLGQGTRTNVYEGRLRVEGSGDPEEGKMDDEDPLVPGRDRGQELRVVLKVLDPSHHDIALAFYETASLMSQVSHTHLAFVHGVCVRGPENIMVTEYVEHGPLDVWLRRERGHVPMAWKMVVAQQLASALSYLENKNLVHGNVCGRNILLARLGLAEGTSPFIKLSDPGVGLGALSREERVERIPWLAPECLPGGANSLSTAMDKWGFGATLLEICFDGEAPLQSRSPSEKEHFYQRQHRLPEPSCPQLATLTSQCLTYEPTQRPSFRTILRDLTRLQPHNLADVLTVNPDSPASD

Row | SMILES | Kd [1] [nM] | inhibition at 10 µM (Tyk2 kinase domain (DH1); compound at 10 μM, ATP 10 μM) [%] | inhibition at 10 µM (JAK2 kinase domain (JH1); compound at 10 μM, ATP 10 μM) [%] | further results
1 | CNc1cc(Nc2cccnc2OC2CC2)nc2c(C(=O)N[C@@H]3CCC[C@H]3O)cnn12 [I-465, 5-((2-cyclopropoxypyridin-3-yl)amino)-N-((1R,2R)-2-hydroxycyclopentyl)-7-(methylamino)pyrazolo[1,5-a]pyrimidine-3-carboxamide] | 0.2 to 1 |  |  | Tyk2 JH1% Inhibition @ 10 μM (Tyk2 kinase domain (DH1); compound at 10 μM, ATP 10 μM): A (percent inhibition at 10 μM lower than 50); JAK2 JH1% Inhibition @ 10 μM (JAK2 kinase domain (JH1); compound at 10 μM, ATP 10 μM): A (percent inhibition at 10 μM lower than 50)
2 | CNc1cc(Nc2cccc(N3CC4(CCO4)C3)n2)nc2c(C(=O)N[C@H]3CC[C@H]3O)cnn12 [I-872] | < 0.2 |  |  | inhibition at 10 µM (Tyk2 kinase domain (DH1); 10 μM compound, 10 μM ATP): < 50%; inhibition at 10 µM (JAK2 kinase domain (JH1); 10 μM compound, 10 μM ATP): < 50%
3 | CNc1cc(Nc2cccn([C@@H]3CCCOC3)c2=O)nc2c(C(=O)N[C@@H]3CC[C@H]3O)cnn12 [I-727] | < 0.2 | < 50 | < 50 | 
4 | CNc1cc(Nc2cccn(C(C)C)c2=O)nc2c(C(=O)N[C@H]3CC[C@@]3(C)O)cnn12 (stereo in doubt) [I-1116, N-(2-hydroxy-2-methylcyclobutyl)-5-((1-isopropyl-2-oxo-1,2-dihydropyridin-3-yl)amino)-7-(methylamino)pyrazolo[1,5-a]pyrimidine-3-carboxamide] | > 10 |  |  | inhibition at 10 µM (Tyk2 kinase domain (DH1); 10 μM compound, 10 μM ATP): < 50%; inhibition at 10 µM (JAK2 kinase domain (JH1); 10 μM compound, 10 μM ATP): < 50%
5 | CNc1cc(Nc2cccn([C@@H]3CCCOC3)c2=O)nc2c(C(=O)N[C@@H]3CC[C@@H]3O)cnn12 [I-752] | 0.2 to 1 | < 50 | < 50 | 
6 | CNc1cc(Nc2cccn([C@@H]3CCN(C)CC3(F)F)c2=O)nc2c(C(=O)NC3CC3)cnn12 [I-824] | 0.2 to 1 |  |  | inhibition at 10 µM (Tyk2 kinase domain (DH1); 10 μM compound, 10 μM ATP): < 50%; inhibition at 10 µM (JAK2 kinase domain (JH1); 10 μM compound, 10 μM ATP): < 50%
7 | CNc1cc(Nc2cccn([C@@H]3CCCOC3)c2=O)nc2c(C(=O)NC3CCC3)cnn12 [I-353] | < 0.2 | < 50 | < 50 | 
8 | CNc1cc(Nc2cccn(-c3ccc(C)nc3)c2=O)nc2c(C(=O)N[C@@H]3C[C@@H]3F)cnn12 [I-766] | < 0.2 | < 50 | < 50 | 
9 | CNc1cc(Nc2cccn(-c3ccc(C)nc3)c2=O)nc2c(C(=O)NCC(C)(C)CO)cnn12 [I-767] | < 0.2 | < 50 | < 50 | 
10 | CNc1cc(Nc2cc(F)cn(C3CCCOC3)c2=O)nc2c(C(=O)NC3CC3)cnn12 (stereo not drawn) [I-494] | 0.2 to 1 | < 50 | < 50 | 
11 | CNc1cc(Nc2cccn(CCOC3CC3)c2=O)nc2c(C(=O)N[C@H]3CC[C@@H]3O)cnn12 [I-514, 5-((1-(2-cyclopropoxyethyl)-2-oxo-1,2-dihydropyridin-3-yl)amino)-N-((1 S,2S)-2-hydroxycyclobutyl)-7-(methylamino)pyrazolo[1,5-a]pyrimidine-3-carboxamide] | 1 to 10 | < 50 | < 50 | 
12 | NC(=O)c1cnn2c(N)cc(Nc3ccnn(-c4ccc(F)cc4)c3=O)nc12 [I-70, 7-amino-5-((2-(4-fluorophenyl)-3-oxo-2,3-dihydropyridazin-4-yl)amino) pyrazolo[1,5-a]pyrimidine-3-carboxamide] | 1 to 10 | < 50 | < 50 | 
13 | CNc1cc(Nc2cc(Cl)cnc2OC2CCC2)nc2c(C(=O)NC3COC3)cnn12 [I-93, 5-((5-chloro-2-cyclobutoxypyridin-3-yl)amino)-7-(methylamino)-N-(oxetan-3-yl)pyrazolo[1,5-a]pyrimidine-3-carboxamide] | > 10 | < 50 | < 50 | 
14 | CNc1cc(Nc2cccn(C3CCN(C)CC3)c2=O)nc2c(C(=O)N[C@H]3C[C@H]3F)cnn12 [I-349] | < 0.2 | < 50 | < 50 | 
15 | CNc1cc(Nc2cccn([C@@H]3CCC[C@@H]3OC)c2=O)nc2c(C(=O)N[C@@H]3C[C@@H]3F)cnn12 [I-507] | 0.2 to 1 | < 50 | < 50 | 
16 | CNc1cc(Nc2cc(C)cnc2OC)nc2c(C(=O)NCC(C)(C)CO)cnn12 [I-270] | 0.2 to 1 | < 50 | < 50 | 
17 | CNc1cc(Nc2cccn([C@@H]3CCCOC3)c2=O)nc2c(C(=O)N[C@H]3CCC[C@H](O)C3)cnn12 [I-734] | 0.2 to 1 |  |  | Tyk2 JH1% Inhibition @ 10 μM (Tyk2 kinase domain (DH1); compound at 10 μM, ATP 10 μM): A (percent inhibition at 10 μM lower than 50); JAK2 JH1% Inhibition @ 10 μM (JAK2 kinase domain (JH1); compound at 10 μM, ATP 10 μM): A (percent inhibition at 10 μM lower than 50)

Row | SMILES | Kd [1] [nM] | inhibition at 10 µM (Tyk2 kinase domain (DH1); compound at 10 μM, ATP 10 μM) [%] | inhibition at 10 µM (JAK2 kinase domain (JH1); compound at 10 μM, ATP 10 μM) [%] | further results
18 | CNc1cc(Nc2cccn(CC3CCCCO3)c2=O)nc2c(C(=O)NC3CC3)cnn12 (stereo not drawn) [I-364] | < 0.2 | < 50 | < 50 | 
19 | CNc1cc(Nc2cc(C)nc(N3CCCC3)c2)nc2c(C(N)=O)cnn12 [I-27] | 1 to 10 | < 50 | < 50 | 
20 | CNc1cc(Nc2cccn(-c3cncc(C)c3)c2=O)nc2c(C(=O)NC3CC3)cnn12 [I-301] | 0.2 to 1 | < 50 | < 50 | 
21 | CNc1cc(Nc2cccn(CCOC3CC3)c2=O)nc2c(C(=O)NCC3(CO)CC3)cnn12 [I-577, 5-((1-(2-cyclopropoxyethyl)-2-oxo-1,2-dihydropyridin-3-yl)amino)-N-((1-(hydroxymethyl)cyclopropyl)methyl)-7-(methylamino)pyrazolo[1,5-a]pyrimidine-3-carboxamide] | 0.2 to 1 | < 50 | < 50 | 
22 | CNc1cc(Nc2cccn(C3CCCCC3)c2=O)nc2c(C(=O)N[C@H]3CC[C@H]3O)cnn12 [I-1001] | 1 to 10 |  |  | Tyk2 JH1% Inhibition @ 10 μM (Tyk2 kinase domain (DH1); 10 μM compound, 10 μM ATP): A (percent inhibition at 10 μM lower than 50); JAK2 JH1% Inhibition @ 10 μM (JAK2 kinase domain (JH1); 10 μM compound, 10 μM ATP): A (percent inhibition at 10 μM lower than 50)
23 | CNc1cc(Nc2cccc(N3CCC34COC4)n2)nc2c(C(=O)NC3CC3)cnn12 [I-708] | < 0.2 | < 50 | < 50 | 
24 | CNc1cc(Nc2cccn([C@H]3CCC[C@@H](OC)C3)c2=O)nc2c(C(=O)N[C@H]3CC[C@@H]3OC)cnn12 [I-1125] | > 10 |  |  | inhibition at 10 µM (Tyk2 kinase domain (DH1); 10 μM compound, 10 μM ATP): < 50%; inhibition at 10 µM (JAK2 kinase domain (JH1); 10 μM compound, 10 μM ATP): < 50%
25 | CNc1cc(Nc2cccn(CCOC3CC3)c2=O)nc2c(C(=O)NC3CC4(COC4)C3)cnn12 [I-576, 5-((1-(2-cyclopropoxyethyl)-2-oxo-1,2-dihydropyridin-3-yl)amino)-7-(methylamino)-N-(2-oxaspiro[3.3]heptan-6-yl)pyrazolo[1,5-a]pyrimidine-3-carboxamide] | 1 to 10 | < 50 | < 50 | 
26 | CNc1cc(Nc2cccn([C@@H]3C[C@H]3F)c2=O)nc2c(C(=O)NC3CC3)cnn12 [I-788] | < 0.2 | < 50 | < 50 | 
27 | CNc1cc(Nc2cccn(C(C)C)c2=O)nc2c(C(=O)NC3CC3)cnn12 [I-394] | 0.2 to 1 | < 50 | < 50 | 
28 | CNc1cc(Nc2cccn(-c3cccc(F)c3)c2=O)nc2c(C(=O)N[C@H]3CC[C@@H]3O)cnn12 [I-1024] | < 0.2 |  |  | inhibition at 10 µM (Tyk2 kinase domain (DH1); 10 μM compound, 10 μM ATP): < 50%; inhibition at 10 µM (JAK2 kinase domain (JH1); 10 μM compound, 10 μM ATP): < 50%
29 | CNc1cc(Nc2cccn([C@H]3CCN(C)C[C@H]3F)c2=O)nc2c(C(=O)NC3CC3)cnn12 [I-627] | < 0.2 | < 50 | < 50 | 
30 | CNc1cc(-c2cn(CCN3CCOCC3)c3ncccc23)nc2c(C(=O)NC3CC3)cnn12 [I-582] | < 0.2 | < 50 | < 50 | 
31 | CNc1cc(Nc2cccn(-c3ccn(C4CC4)n3)c2=O)nc2c(C(=O)NC3COC3)cnn12 [I-89, 5-((1-(1-cyclopropyl-1H-pyrazol-3-yl)-2-oxo-1,2-dihydropyridin-3-yl)amino)-7-(methylamino)-N-(oxetan-3-yl)pyrazolo[1,5-a]pyrimidine-3-carboxamide] | > 10 | < 50 | < 50 | 
32 | CNc1cc(Nc2cccn(C3CCCOC3)c2=O)nc2c(C(=O)NC3CC3)cnn12 (stereo not drawn) [I-313] | < 0.2 | < 50 | < 50 | 
33 | CNc1cc(Nc2cccn([C@H]3CCCN(C)C3)c2=O)nc2c(C(=O)NC3CC3)cnn12 [I-511] | 0.2 to 1 | < 50 | < 50 | 
